Compound in one experiment: CO[C@H]1C[C@@H]2CC[C@@H](C)[C@@](O)(O2)C(=O)C(=O)N2CCCC[C@H]2C(=O)O[C@H]([C@H](C)C[C@@H]2CC[C@@H](OCCO)[C@H](OC)C2)CC(=O)[C@H](C)/C=C(\C)[C@@H](O)[C@@H](OC)C(=O)[C@H](C)C[C@H](C)/C=C/C=C/C=C/1C [EVEROLIMUS]
Briefly: surviving fraction relative to DMSO-only wells; higher = less growth inhibition. Particulars: exposure time: 5 days. Summed up: (§1)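 Viability values are CellTiter-Glo luminescence readings, given as surviving fraction against the median of DMSO-only wells. The readings were taken after 10 minutes at room temperature, following five days of continuous exposure to inhibitors at 0.5, 1, 5, 10, 50, 100, 500 and 1000 nM that began 24 hours after log-phase tumour cell lines were seeded at 250–500 cells per well in 384-well plates. Every line was screened three times and kept only if replicate Pearson r >0.7 and median Z' >0.3.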

Compound in the next experiment: O=C(O)CC[C@H]1CC[C@@](c2cc(F)ccc2F)(S(=O)(=O)c2ccc(Cl)cc2)CC1 [MK0752]
Described as above. The following applies: exposure time: 5 days. Summed up: as §1

± gives the standard deviation of the averaged measurements.

Regarding CAL51 BREAST, the surviving fraction with EVEROLIMUS (0.5 nM) was 0.684 ± 0.049; with EVEROLIMUS (1 nM) it was 0.527 ± 0.046; in the experiment with EVEROLIMUS (5 nM) it was 0.406 ± 0.026; with EVEROLIMUS (10 nM) it was 0.376 ± 0.0096; with EVEROLIMUS (50 nM), 0.332 ± 0.029; with EVEROLIMUS (100 nM), 0.283 ± 0.011. For the same test system, the surviving fraction in the experiment with EVEROLIMUS (500 nM) came to 0.257 ± 0.039; with EVEROLIMUS (1000 nM), 0.26 ± 0.025; in the experiment with MK0752 (0.5 nM), 1.02 ± 0.015; in the experiment with MK0752 (1 nM) it was 0.995 ± 0.035; with MK0752 (5 nM), 0.972 ± 0.027; in the experiment with MK0752 (10 nM), 0.967 ± 0.064. For the same test system, the surviving fraction with MK0752 (50 nM) came to 1.05 ± 0.013; in the experiment with MK0752 (100 nM), 0.992 ± 0.038; in the experiment with MK0752 (500 nM), 1.02 ± 0.036; in the experiment with MK0752 (1000 nM) it was 1.02 ± 0.041.
CAL120 BREAST: the surviving fraction stood at 0.707 ± 0.073 with EVEROLIMUS (0.5 nM); 0.602 ± 0.062 in the experiment with EVEROLIMUS (1 nM); 0.501 ± 0.028 in the experiment with EVEROLIMUS (5 nM); 0.486 ± 0.026 with EVEROLIMUS (10 nM); 0.463 ± 0.007 in the experiment with EVEROLIMUS (50 nM); 0.45 ± 0.021 with EVEROLIMUS (100 nM). In addition, the surviving fraction with EVEROLIMUS (500 nM) is 0.424 ± 0.021; with EVEROLIMUS (1000 nM) it was 0.412 ± 0.0054; in the experiment with MK0752 (0.5 nM), 1.009 ± 0.0055; with MK0752 (1 nM) it was 1 ± 0.047; with MK0752 (5 nM) it was 1.025 ± 0.0088; in the experiment with MK0752 (10 nM), 1.01 ± 0.024. Further, the surviving fraction came out at 1.03 ± 0.018 with MK0752 (50 nM), 1.07 ± 0.028 with MK0752 (100 nM), 1.023 ± 0.0088 with MK0752 (500 nM) and 1 ± 0.054 in the experiment with MK0752 (1000 nM).
Take CASKI CERVIX: the surviving fraction with EVEROLIMUS (0.5 nM) was determined as 0.57 ± 0.035; with EVEROLIMUS (1 nM), 0.506 ± 0.025; with EVEROLIMUS (5 nM) it was 0.473 ± 0.018; with EVEROLIMUS (10 nM), 0.402 ± 0.029; with EVEROLIMUS (50 nM), 0.446 ± 0.021; in the experiment with EVEROLIMUS (100 nM) it was 0.389 ± 0.043. Further, the surviving fraction with EVEROLIMUS (500 nM) was 0.376 ± 0.0098; with EVEROLIMUS (1000 nM), 0.379 ± 0.014; with MK0752 (0.5 nM), 0.896 ± 0.038; in the experiment with MK0752 (1 nM), 0.973 ± 0.061; in the experiment with MK0752 (5 nM), 1.01 ± 0.047; with MK0752 (10 nM) it was 0.952 ± 0.03. The surviving fraction in the experiment with MK0752 (50 nM) was found to be 1.08 ± 0.045; with MK0752 (100 nM), 1.09 ± 0.061; with MK0752 (500 nM), 0.987 ± 0.054; with MK0752 (1000 nM), 0.943 ± 0.057.
With CHLA90 AUTONOMIC GANGLIA, the surviving fraction with EVEROLIMUS (0.5 nM) stood at 0.634 ± 0.051; with EVEROLIMUS (1 nM) it was 0.512 ± 0.026; with EVEROLIMUS (5 nM) it was 0.342 ± 0.021; in the experiment with EVEROLIMUS (10 nM), 0.343 ± 0.011; with EVEROLIMUS (50 nM), 0.372 ± 0.066; with EVEROLIMUS (100 nM) it was 0.404 ± 0.091. For the same test system, the surviving fraction with EVEROLIMUS (500 nM) was determined as 0.355 ± 0.067; in the experiment with EVEROLIMUS (1000 nM) it was 0.344 ± 0.085; with MK0752 (0.5 nM), 0.984 ± 0.034; with MK0752 (1 nM) it was 1.05 ± 0.039; with MK0752 (5 nM) it was 1.05 ± 0.04; with MK0752 (10 nM), 1.009 ± 0.0045. In addition, the surviving fraction with MK0752 (50 nM) was 1.01 ± 0.026; in the experiment with MK0752 (100 nM), 0.952 ± 0.044; with MK0752 (500 nM), 1.1 ± 0.037; in the experiment with MK0752 (1000 nM), 1.09 ± 0.018.
As to CME SYNOVIAL, the surviving fraction with EVEROLIMUS (0.5 nM) was determined as 1.2 ± 0.12; with EVEROLIMUS (1 nM), 1.2 ± 0.2; with EVEROLIMUS (5 nM), 1.29 ± 0.071; with EVEROLIMUS (10 nM) it was 1.15 ± 0.16; in the experiment with EVEROLIMUS (50 nM) it was 0.885 ± 0.096; with EVEROLIMUS (100 nM), 0.828 ± 0.066. The surviving fraction came out at 0.66 ± 0.085 with EVEROLIMUS (500 nM); 0.77 ± 0.1 in the experiment with EVEROLIMUS (1000 nM); 1.27 ± 0.23 in the experiment with MK0752 (0.5 nM); 1.31 ± 0.15 with MK0752 (1 nM); 1.29 ± 0.09 with MK0752 (5 nM); 1.39 ± 0.029 with MK0752 (10 nM). Also, the surviving fraction in the experiment with MK0752 (50 nM) worked out at 1.46 ± 0.22; in the experiment with MK0752 (100 nM), 1.47 ± 0.2; with MK0752 (500 nM), 1.24 ± 0.11; with MK0752 (1000 nM), 1.34 ± 0.14.
Consider COLO320DM LARGE INTESTINE, for which the surviving fraction with EVEROLIMUS (0.5 nM) is 0.945 ± 0.056; with EVEROLIMUS (1 nM), 0.983 ± 0.072; in the experiment with EVEROLIMUS (5 nM) it was 0.835 ± 0.081; in the experiment with EVEROLIMUS (10 nM), 0.843 ± 0.074; with EVEROLIMUS (50 nM), 0.742 ± 0.017; in the experiment with EVEROLIMUS (100 nM), 0.779 ± 0.037. Moreover, the surviving fraction with EVEROLIMUS (500 nM) amounted to 0.695 ± 0.047; in the experiment with EVEROLIMUS (1000 nM), 0.652 ± 0.025; in the experiment with MK0752 (0.5 nM) it was 1.09 ± 0.11; in the experiment with MK0752 (1 nM), 1.18 ± 0.065; with MK0752 (5 nM) it was 1.16 ± 0.1; in the experiment with MK0752 (10 nM), 1.18 ± 0.049. The surviving fraction stood at 1.14 ± 0.01 with MK0752 (50 nM), 1.2 ± 0.087 with MK0752 (100 nM), 1.17 ± 0.096 with MK0752 (500 nM) and 1.25 ± 0.27 in the experiment with MK0752 (1000 nM).
In the case of DU4475 BREAST, the surviving fraction worked out at 0.429 ± 0.1 with EVEROLIMUS (0.5 nM); 0.272 ± 0.054 with EVEROLIMUS (1 nM); 0.148 ± 0.0015 with EVEROLIMUS (5 nM); 0.161 ± 0.03 in the experiment with EVEROLIMUS (10 nM); 0.108 ± 0.031 with EVEROLIMUS (50 nM); 0.125 ± 0.03 in the experiment with EVEROLIMUS (100 nM). Besides, the surviving fraction turned out to be 0.103 ± 0.0061 with EVEROLIMUS (500 nM); 0.0877 ± 0.012 in the experiment with EVEROLIMUS (1000 nM); 1.04 ± 0.097 in the experiment with MK0752 (0.5 nM); 0.997 ± 0.16 in the experiment with MK0752 (1 nM); 0.927 ± 0.19 with MK0752 (5 nM); 1.03 ± 0.21 in the experiment with MK0752 (10 nM). Also, the surviving fraction in the experiment with MK0752 (50 nM) came to 0.967 ± 0.22; with MK0752 (100 nM) it was 0.911 ± 0.26; with MK0752 (500 nM) it was 0.976 ± 0.35; with MK0752 (1000 nM) it was 1.05 ± 0.38.
With H23 LUNG, the surviving fraction came out at 0.811 ± 0.023 in the experiment with EVEROLIMUS (0.5 nM); 0.724 ± 0.011 with EVEROLIMUS (1 nM); 0.567 ± 0.049 with EVEROLIMUS (5 nM); 0.501 ± 0.039 in the experiment with EVEROLIMUS (10 nM); 0.488 ± 0.022 in the experiment with EVEROLIMUS (50 nM); 0.482 ± 0.034 with EVEROLIMUS (100 nM). The surviving fraction in the experiment with EVEROLIMUS (500 nM) amounted to 0.405 ± 0.048; in the experiment with EVEROLIMUS (1000 nM) it was 0.433 ± 0.03; with MK0752 (0.5 nM), 1.064 ± 0.004; with MK0752 (1 nM), 1.11 ± 0.053; with MK0752 (5 nM), 1.1 ± 0.061; in the experiment with MK0752 (10 nM), 1.07 ± 0.063. Besides, the surviving fraction with MK0752 (50 nM) came out at 1.104 ± 0.0052; with MK0752 (100 nM), 1.17 ± 0.1; with MK0752 (500 nM), 1.103 ± 0.0038; in the experiment with MK0752 (1000 nM), 1.13 ± 0.058.
For HCC38 BREAST, the surviving fraction was determined as 1.17 ± 0.022 in the experiment with EVEROLIMUS (0.5 nM); 1.01 ± 0.065 with EVEROLIMUS (1 nM); 0.897 ± 0.11 with EVEROLIMUS (5 nM); 0.925 ± 0.069 in the experiment with EVEROLIMUS (10 nM); 0.795 ± 0.08 in the experiment with EVEROLIMUS (50 nM); 0.888 ± 0.033 with EVEROLIMUS (100 nM). Also, the surviving fraction in the experiment with EVEROLIMUS (500 nM) was 0.733 ± 0.024; in the experiment with EVEROLIMUS (1000 nM), 0.852 ± 0.027; with MK0752 (0.5 nM), 1.22 ± 0.34; with MK0752 (1 nM) it was 1.15 ± 0.21; in the experiment with MK0752 (5 nM), 1.27 ± 0.18; with MK0752 (10 nM), 1.24 ± 0.044. The surviving fraction with MK0752 (50 nM) is 1.21 ± 0.15; in the experiment with MK0752 (100 nM), 1.34 ± 0.28; in the experiment with MK0752 (500 nM) it was 1.12 ± 0.03; in the experiment with MK0752 (1000 nM), 1.1 ± 0.16.
